Reference: patent publication US20200069775A1, “BRAIN OSTEOCALCIN RECEPTOR AND COGNITIVE DISORDERS” (The Trustees of Columbia University in the City of New York, priority 2017, published 2020)

Test system: Tph2, Th, Gad1 expression in brainstem and midbrain explants
Assay: Gene expression (qPCR) in brainstem and midbrain explants
Assay type: cell-based, mouse
Experimental: For gene expression studies, RNA was isolated from primary neurons or tissue using TRIZOL® (Invitrogen). cDNA synthesis was performed following a standard protocol from Invitrogen and qPCR analyses were done using specific quantitative PCR primers from SABiosciences (http://www.sabiosciences.com/RT2PCR.php).
Brains were dissected and incubated for 30 minutes in ice cold oxygenated artificial cerebrospinal fluid (ACSF). Brains were then sliced at 500 μm at the midbrain, −1.55 to −2.35 mm from the bregma, and at the level of the brainstem, from −4.04 to −4.48 mm and from −4.60 to −5.20 mm from the bregma, to include the median and dorsal raphe, respectively. These slices were incubated in ACSF for 1 h, constantly oxygenated (95% O2 and 5% CO2) […], after which they were treated with either osteocalcin (10 ng/ml) or PBS for four hours. Expression of Tph2, TH, GAD 1, GAD2, and Ddc was measured by qPCR.
To determine if osteocalcin acts directly on neurons to modulate neurotransmitter synthesis, several types of assays were performed. First, brainstem and midbrain explants from WT and Gprc6a^−/− mice were generated. Brains were sliced (500 μm) at the level of the median and dorsal raphe of the brainstem (from −4.04 to −4.48 mm and from −4.60 to −5.20 mm, respectively), so that they would be enriched in serotonin-producing neurons, as well as at the level of substantia nigrae and ventral tegmental areas (VTA) of the midbrain (from −1.55 to −2.35 mm and from −2.55 to −3.25 mm, respectively). Enrichment in serotoninergic and catecholaminergic neurons in these explants was verified by their high Tph2 and Th expression. While leptin, used here as a positive control, reduced, as it should, Tph2 expression in WT or Gprc6a^−/− brainstem explants, osteocalcin ([…]) increased expression of this gene 2.5 fold in both WT and Gprc6a^−/− explants. (FIG. 3D). […] Third, to further confirm that osteocalcin signals in neurons of the hindbrain, calcium flux in MPHN treated with undercarboxylated or carboxylated osteocalcin (FIG. 3F) was measured.

## osteocalcin: Recombinant osteocalcin bacterially produced, cleaved from the GST subunit; completely undercarboxylated at all three sites; full-length mouse osteocalcin (YLGASVPSPDPLEPTREQCELNPACDELSDQYGLKTAYKRIYGITI)
WT and Gprc6a−/− hindbrain explants
  Gad1 expression: decreased Gad1 expression
Midbrain explants
  Th expression: increased Th expression
Osteocalcin 3 ng/ml, WT and Gprc6a−/− brainstem explants
  increase of Tph2 expression: 2.5 fold
